According to patent US9006454B2, “Dihydroorotate dehydrogenase inhibitors” (Merck Serono S.A., priority 2009, dated 2015):
pEC50, pIC50: −log10 of the molar value.

Key:
DHODH = DHODH (Homo sapiens (Human), UniProt Q02127); experiment: DHODH activity assay (coupled enzyme assay, DCIP reduction, absorbance at 610 nm); type: biochemical; details: for inhibition at 10 µM: compound at 10 uM, read-out: inh @ 10 uM hDHODH (%)
Jurkat cells = experiment: Measurement of cell proliferation (Jurkat cell), XTT assay; type: cell-based; details: Homo sapiens, Jurkat; for inhibition at 1 µM: compound at 1 uM, read-out: % inh Jurkat_cells @ 1 uM (%); for pEC50: 72 h, XTT cell viability
Method in brief: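 Jurkat T cells, 100,000 per well in RPMI with 10% FBS, exposed 72 h at 37 °C to serial compound dilutions (typically from 10 μM, half-log steps, triplicate) at 0.25–0.5% DMSO. Viability by XTT/PMS, A465 after 2 h, media background subtracted, untreated cells as 100%; EC50 from curve fit.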

DHODH, sequence (Q02127 whole entry): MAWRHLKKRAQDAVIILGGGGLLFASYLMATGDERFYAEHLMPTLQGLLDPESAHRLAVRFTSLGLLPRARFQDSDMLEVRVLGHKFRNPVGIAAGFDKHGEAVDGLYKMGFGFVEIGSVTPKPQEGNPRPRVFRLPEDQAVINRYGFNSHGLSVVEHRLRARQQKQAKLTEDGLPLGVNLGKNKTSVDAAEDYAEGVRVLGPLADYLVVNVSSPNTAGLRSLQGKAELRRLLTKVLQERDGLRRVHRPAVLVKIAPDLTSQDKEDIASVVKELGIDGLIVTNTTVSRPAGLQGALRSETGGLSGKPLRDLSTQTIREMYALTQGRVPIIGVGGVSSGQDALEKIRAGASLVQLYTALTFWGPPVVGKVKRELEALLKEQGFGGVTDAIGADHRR

Compound	inhibition at 10 µM (DHODH) [%]	inhibition at 1 µM (Jurkat cells) [%]	pIC50 (DHODH)	pEC50 (Jurkat cells)
Cc1cc(C(=O)O)c2[nH]c(-c3ccc(-n4ccccc4=O)cc3)nc2c1 [I64]	5.7	1.5		
Cc1cc(C(=O)O)c2nc(-c3ccc(-c4ccc(CO)cc4)cc3)[nH]c2c1 [I170]	84	57		
Cc1cc(C(=O)O)c2[nH]c(-c3ccc(-c4ccccc4OCc4ccccc4)cc3)nc2c1 [I106]	91	48	5.82	
Cc1cc(C(=O)O)c2nc(-c3c(F)c(F)c(-c4ccccc4)c(F)c3F)[nH]c2c1 [I41]	103	103	8.17	7.74
O=C(O)c1cccc2[nH]c(-c3ccc(-c4ccccc4F)cc3)nc12 [I15]	96.4	64.4	6.31	
O=C(O)c1cccc2[nH]c(-c3ccc(Oc4ccccc4)cc3)nc12 [I10]	80.3	35.1	5.54	
CONC(=O)c1cc(C)cc2nc(-c3c(F)c(F)c(-c4ccccc4)c(F)c3F)[nH]c12 [I98]	66.2	30.1	5.66	
Cc1cc(C(=O)O)c2nc(-c3ccc(Oc4c(F)c(F)c(F)c(F)c4F)cc3)[nH]c2c1 [I72, 6-Methyl-2-(4-pentafluorophenyloxy-phenyl)-1H-benzoimidazole-4-carboxylic acid]	38	9		
Cc1cc(C(=O)O)c2nc(-c3ccc(-c4ccc(S(N)(=O)=O)cc4)cc3)[nH]c2c1 [I174]	43	9		
Cc1cc(C(=O)O)c2[nH]c(-c3ccc(-c4ccc(O)c(O)c4)cc3)nc2c1 [I91]	94.2	62.3	6.19	
O=C(O)c1cccc2[nH]c(-c3ccc(-c4cccc(F)c4F)cc3)nc12 [I60]	80.4	33.4		
O=C(O)c1cccc2[nH]c(-c3ccc(-c4ccccc4O)cc3)nc12 [I168]	85	34		
O=C(O)c1cccc2[nH]c(-c3ccc(-c4ccc(Oc5ccccn5)cc4)cc3)nc12 [I172]	60	21		
O=C(O)c1cccc2nc(-c3ccc(-c4ccccc4)cc3F)[nH]c12 [I27]	86.2	57.1	6.04	
Cc1cc(C(=O)O)c2nc(-c3ccc(-c4ccc(O)cc4)cc3)[nH]c2c1 [I117]	102	76	6.46	
COc1cc(-c2nc3c(C(=O)O)cccc3[nH]2)cc(OC)c1-c1ccccc1 [I20]	93.2	67.1	6.01	6.00
O=C(O)c1cccc2[nH]c(-c3c(F)c(F)c(-c4cc(F)cc(F)c4)c(F)c3F)nc12 [I129]	90.8	70.5	7.70	
Cc1cc(C(=O)O)c2nc(-c3c(F)c(F)c(Oc4ccccc4)c(F)c3F)[nH]c2c1 [I189]	39.8	3		
Cc1cc(C(=O)O)c2nc(C#Cc3ccc(OCc4ccccc4)cc3)[nH]c2c1 [I166]	53.2	13.4		

Compound	inhibition at 10 µM (DHODH) [%]	inhibition at 1 µM (Jurkat cells) [%]	pIC50 (DHODH)	pEC50 (Jurkat cells)
Cc1cc(C(=O)O)c2nc(-c3ccc(-c4ccc(Oc5ccc(C#N)cc5)cc4)cc3)[nH]c2c1 [I178]	53.3	37.6		
O=C(O)c1cccc2[nH]c(-c3ccc(-c4ccc(OC(F)(F)F)cc4)cc3)nc12 [I16]	39.9	18		
Cc1cc(C(=O)OCCO)c2[nH]c(-c3c(F)c(F)c(-c4ccccc4)c(F)c3F)nc2c1 [I156]	69.1	31.4		
Cc1cc(C(=O)O)c2[nH]c(-c3ccc(-c4ccccc4)nc3)nc2c1 [I75, 6-Methyl-2-(6-phenyl-pyridin-3-yl)-3H-benzoimidazole-4-carboxylic acid]	82.4	39.3	5.42	
N#Cc1cccc2nc(-c3ccc(-c4ccccc4)cc3)[nH]c12 [I38]	16.8	8		
Cc1cc(C(=O)O)c2nc(-c3ccc(-c4ccsc4)cc3)[nH]c2c1 [I23]	77.8	33.9		
O=C(O)c1cc(F)cc2[nH]c(-c3ccc(-c4cccnc4)cc3)nc12 [I58]	99.7	69.8	6.36	
N#Cc1ccccc1Oc1ccc(-c2ccc(-c3nc4c(C(=O)O)cccc4[nH]3)cc2)cc1 [I175]	30	15		
Cc1cc(C#N)c2nc(-c3c(F)c(F)c(-c4ccccc4)c(F)c3F)[nH]c2c1 [I109]	87	49	5.78	
Cc1cc(C(=O)O)c2nc(-c3ccc(-c4ccc(NC(=O)C5CCNCC5)cc4)cc3)[nH]c2c1 [I90]	78.8	44.5	5.43	
O=C(O)c1cc(F)cc2nc(-c3ccc4cc[nH]c4c3)[nH]c12 [I37]	13.7	6.9		
Cc1cc(C(=O)O)c2[nH]c(-c3ccc(-c4ccc(F)cc4F)cc3)nc2c1 [I33]	91.3	50.5	5.85	
Cc1cc(C(=O)O)c2c(c1)nc(-c1c(F)c(F)c(-c3ccc(O)cc3)c(F)c1F)n2CCO [I94]	89.7	82.5	7.11	
Cc1cc(C(=O)O)c2nc(-c3ccc(-c4cccc(OCc5ccccc5)c4)cc3)[nH]c2c1 [I115]	88	52	5.92	
Cc1cc(C(=O)O)c2nc(-c3ccc(-c4cccc(O)c4)cc3)[nH]c2c1 [I116]	78	59	6.06	
O=C(O)c1cccc2nc(-c3ccc(-c4ccc(OCCO)cc4)cc3)[nH]c12 [I157]	51.8	15.5		
Cc1cc(C(=O)O)c2nc(-c3ccc(-c4ccc(OCCCN5CCOCC5)cc4)cc3)[nH]c2c1 [I87]	74.1	35.7	5.52	
Cc1cc(C(=O)O)c2[nH]c(-c3ccc(-c4ccccc4)cc3)cc2c1 [I187]	32.1	15.3		
Cc1cc(C(=O)O)c2[nH]c(-c3ccc(-c4cccc(OC5CCNCC5)c4)cc3)nc2c1 [I155]	48.5	14.2		

Compound	inhibition at 10 µM (DHODH) [%]	inhibition at 1 µM (Jurkat cells) [%]	pIC50 (DHODH)	pEC50 (Jurkat cells)
O=C(O)c1cccc2[nH]c(-c3c(F)c(F)c(-c4ccccc4F)c(F)c3F)nc12 [I131]	79.3	78.8	7.74	
N#Cc1ccc(Oc2ccc(-c3nc4cccc(C(=O)O)c4[nH]3)cc2)cc1 [I77, 2-[4-(4-Cyano-phenoxy)-phenyl]-3H-benzoimidazole-4-carboxylic acid]	34.6	11.5		
Cc1cc(C(=O)O)c2[nH]c(-c3ccc(-c4ccccc4F)cc3F)nc2c1 [I25]	94	82	6.76	7.01
O=C(O)c1cccc2nc(-c3ccc(-c4ccc(F)cc4F)cc3F)[nH]c12 [I30]	68.1	31.5		
O=C(O)c1cccc2nc(-c3ccc(-c4ccccn4)cc3)[nH]c12 [I73, 2-(4-Pyridin-2-yl-phenyl)-3H-benzoimidazole-4-carboxylic acid]	29.6	13.6		
Cc1cc(C(=O)O)c2nc(-c3c(F)cc(-c4ccccc4)cc3F)[nH]c2c1 [I48]	100	88.1	6.75	6.41
Cc1cc(C(=O)O)c2nc(-c3ccc(-c4ccccc4O)cc3)[nH]c2c1 [I167]	82.7	34.5		
O=C(O)c1cccc2[nH]c(-c3c(F)c(F)c(Oc4ccccc4)c(F)c3F)nc12 [I188]	41.5	17		
Cc1cc(C(=O)O)c2nc(-c3c(F)c(F)c(-c4ccc(F)c(F)c4)c(F)c3F)[nH]c2c1 [I145]	95.6	75.8	6.50	
O=C(O)c1cccc2nc(-c3ccc(-c4c(F)cccc4F)cc3)[nH]c12 [I65]	82	43	5.74	
Cc1cc(C(=O)O)c2[nH]c(-c3ccc(-c4ccc(OCCN5CCCCC5)cc4)cc3)nc2c1 [I154]	49.1	8.7		
Cc1cc(C(=O)NC(C)C)c2[nH]c(-c3c(F)c(F)c(-c4ccccc4)c(F)c3F)nc2c1 [I162]	71.3	28.5		
Cc1cc(C(=O)O)c2nc(-c3ccc(-c4ccccc4)cn3)[nH]c2c1 [I53]	59.8	22.7	5.15	
O=C(O)c1cccc2[nH]c(-c3c(F)c(F)c(-c4ccccc4)c(F)c3F)nc12 [I21]	97.3	92.4	7.42	6.62
Cc1cc(C(=O)O)c2nc(-c3ccc(-c4ccc(OCc5ccccc5)cc4)cc3)[nH]c2c1 [I143]	87	42.2	5.91	
O=C(O)c1cccc2[nH]c(-c3ccc(-c4ccc(O)cc4)cc3)nc12 [I177]	51.3	40.5		
Cc1cc(C(=O)O)c2nc(-c3ccc(-c4ccc(OCCN5CCCC5)cc4)cc3)[nH]c2c1 [I151]	67.9	16		
Cc1cc(C(=O)O)c2nc(-c3ccc(-c4cccc(F)c4F)cc3)[nH]c2c1 [I52]	84.4	56.7	6.05	
O=C(O)c1cccc2[nH]c(-c3ccc(Oc4c(F)cccc4F)cc3)nc12 [I56]	83.2	38.8	5.80	
